{"source": "patent US20150105252A1", "about": "“SUBSTITUTED PYRAZOLES AS HERBICIDES” (E I DU PONT DE NEMOURS AND COMPANY, priority 2013, published 2015)", "key": {"[1]": {"test_system": "fall panicum", "test": "Test F preemergence", "type": "in vivo, Panicum dichotomiflorum", "excerpt": "(§1) Seeds of plant species selected from corn (Zea mays), soybean (Glycine max), velvetleaf (Abutilon theophrasti), lambsquarters (Chenopodium album), wild poinsettia (Euphorbia heterophylla), pigweed, palmer (palmer pigweed, Amaranthus palmeri), common waterhemp (Amaranthus rudis), surinam grass (Brachiaria decumbens), large crabgrass (Digitaria sanguinalis), crabgrass, Brazil (Brazilian crabgrass, Digitaria horizontalis), fall panicum (Panicum dichotomiflorum), giant foxtail (Setaria faberii), green foxtail (Setaria viridis), goosegrass (Eleusine indica), johnsongrass (Sorghum halepense), common ragweed (Ambrosia elation), barnyardgrass (Echinochloa crus-galli), southern sandbur (Cenchrus echinatus), arrowleaf sida (Sida rhombifolia), Italian ryegrass (Lolium multiflorum), dayflower, VA (Virginia (VA) dayflower, Commelina virginica), field bindweed (Convolvulus arvensis), cocklebur (common cocklebur, Xanthium strumarium), morningglory (Ipomoea coccinea), nightshade (eastern black nightshade, Solanum ptycanthum), kochia (Kochia scoparia), yellow nutsedge (Cyperus esculentus), and hairy beggarticks (Bidens pilosa), were planted into a silt loam soil and treated preemergence with test chemicals formulated in a non-phytotoxic solvent mixture which included a surfactant.\n(§2) At the same time, plants from these crop and weed species and also horseweed (Canada horseweed, Conyza canadensis), smartweed (ladysthumb smartweed, Polygonum persicaria), waterhemp_RES1, (ALS & Triazine resistant common waterhemp, Amaranthus rudis), and waterhemp_RES2, (ALS & HPPD resistant common waterhemp, Amaranthus rudis) were treated with postemergence applications of test chemicals formulated in the same manner. Plants ranged in height from 2 to 18 cm for postemergence treatments (1- to 4-leaf stage). Treated plants and controls were maintained in a greenhouse for 14 to 21 days, after which time all species were compared to controls and visually evaluated. Plant response ratings, summarized in Table F, are based on a scale of 0 to 100 where 0 is no effect and 100 is complete control. A dash (-) response means no test result."}, "[2]": {"test_system": "barnyardgrass", "test": "Test F postemergence", "type": "in vivo, Echinochloa crus-galli", "conditions": "scale 0 to 100", "excerpt": "as §1, §2"}, "[3]": {"test_system": "southern sandbur", "test": "Test F postemergence", "type": "in vivo, Cenchrus echinatus", "conditions": "scale 0 to 100", "excerpt": "as §1, §2"}, "[4]": {"test_system": "field bindweed", "test": "Test F postemergence", "type": "in vivo, Convolvulus arvensis", "conditions": "scale 0 to 100", "excerpt": "as §1, §2"}, "[5]": {"test_system": "Italian ryegrass", "test": "Test F postemergence", "type": "in vivo, Lolium multiflorum", "conditions": "scale 0 to 100", "excerpt": "as §1, §2"}, "[6]": {"test_system": "pigweed, palmer", "test": "Test F postemergence", "type": "in vivo, Amaranthus palmeri", "conditions": "scale 0 to 100", "excerpt": "as §1, §2"}, "[7]": {"test_system": "wild poinsettia", "test": "Test F postemergence", "type": "in vivo, Euphorbia heterophylla", "conditions": "scale 0 to 100", "excerpt": "as §1, §2"}, "[8]": {"test_system": "soybean", "test": "Test F postemergence", "type": "in vivo, Glycine max", "conditions": "scale 0 to 100", "excerpt": "as §1, §2"}, "[9]": {"test_system": "hairy beggarticks", "test": "Test F postemergence", "type": "in vivo, Bidens pilosa", "conditions": "scale 0 to 100", "excerpt": "as §1, §2"}, "[10]": {"test_system": "crabgrass, Brazil", "test": "Test F postemergence", "type": "in vivo, Digitaria horizontalis", "conditions": "scale 0 to 100", "excerpt": "as §1, §2"}, "[11]": {"test_system": "dayflower, VA", "test": "Test F postemergence", "type": "in vivo, Commelina virginica", "conditions": "scale 0 to 100", "excerpt": "as §1, §2"}, "[12]": {"test_system": "fall panicum", "test": "Test F postemergence", "type": "in vivo, Panicum dichotomiflorum", "conditions": "scale 0 to 100", "excerpt": "as §1, §2"}, "[13]": {"test_system": "arrowleaf sida", "test": "Test F postemergence", "type": "in vivo, Sida rhombifolia", "conditions": "scale 0 to 100", "excerpt": "as §1, §2"}, "[14]": {"test_system": "waterhemp_RES1 (ALS & Triazine resistant common waterhemp)", "test": "Test F postemergence", "type": "in vivo, Amaranthus rudis", "conditions": "scale 0 to 100", "procedure,_shortened": "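Visual injury was scored from 0 (none) to 100 (complete control) relative to untreated controls after 14–21 days in a greenhouse. Before that, formulated compound (solvent plus surfactant) was sprayed either on silt-loam soil right after sowing or on emerged plants at the 1–4-leaf stage, 2–18 cm tall.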"}, "[15]": {"test_system": "cocklebur", "test": "Test F preemergence", "type": "in vivo, Xanthium strumarium", "conditions": "scale 0 to 100", "excerpt": "as §1, with “surfactant. […]” for “surfactant.”"}}, "note": "Several values for one entry are separate records, joined by “and”; a condition that tells them apart may be missing. Identical values can stand only once.", "data": [{"smiles": "CCc1cc(-c2ccc(C(F)(F)F)cc2)nn1Cc1ccnc(C(F)(F)F)c1", "note": "[Compound 110]", "values": [{"measurement": "Plant response rating, Fall Panicum", "setting": "[1]; Preemergence, 31 g ai/ha, scale 0 to 100", "value": 75}, {"measurement": "Plant response rating, Fall Panicum", "setting": "[1]; Preemergence, 62 g ai/ha, scale 0 to 100", "value": 98}, {"measurement": "Plant response rating, Fall Panicum", "setting": "[1]; Preemergence, 125 g ai/ha, scale 0 to 100", "value": 100}, {"measurement": "Plant response rating, Fall Panicum", "setting": "[1]; preemergence, 8 g ai/ha, scale 0 to 100, 100 is complete control", "value": 0}, {"measurement": "Plant response rating, Fall Panicum", "setting": "[1]; preemergence, 16 g ai/ha, scale 0 to 100, 100 is complete control", "value": 5}, {"measurement": "Plant response rating, Barnyardgrass", "setting": "[2]; Postemergence, 16 g ai/ha", "value": 20}, {"measurement": "Plant response rating, Barnyardgrass", "setting": "[2]; Postemergence, 31 g ai/ha", "value": 20}, {"measurement": "Plant response rating, Barnyardgrass", "setting": "[2]; Postemergence, 125 g ai/ha", "value": 50}, {"measurement": "Plant response rating, Barnyardgrass", "setting": "[2]; postemergence, 8 g ai/ha", "value": 10}, {"measurement": "Plant response rating, Southern Sandbur", "setting": "[3]; Postemergence, 16 g ai/ha", "value": 20}, {"measurement": "Plant response rating, Southern Sandbur", "setting": "[3]; Postemergence, 31 g ai/ha", "value": 25}, {"measurement": "Plant response rating, Southern Sandbur", "setting": "[3]; Postemergence, 125 g ai/ha", "value": 30}, {"measurement": "Plant response rating, Southern Sandbur", "setting": "[3]; postemergence, 8 g ai/ha", "value": 20}, {"measurement": "Plant response rating, Field Bindweed", "setting": "[4]; Postemergence, 16 g ai/ha", "value": 40}, {"measurement": "Plant response rating, Field Bindweed", "setting": "[4]; Postemergence, 31 g ai/ha", "value": 60}, {"measurement": "Plant response rating, Field Bindweed", "setting": "[4]; Postemergence, 125 g ai/ha", "value": 60}, {"measurement": "Plant response rating, Field Bindweed", "setting": "[4]; postemergence, 62 g ai/ha", "value": "40 and 50"}, {"measurement": "Plant response rating, Field Bindweed", "setting": "[4]; postemergence, 8 g ai/ha", "value": 30}, {"measurement": "Plant response rating, Italian Ryegrass", "setting": "[5]; Postemergence, 16 g ai/ha", "value": 20}, {"measurement": "Plant response rating, Italian Ryegrass", "setting": "[5]; Postemergence, 31 g ai/ha", "value": 20}, {"measurement": "Plant response rating, Italian Ryegrass", "setting": "[5]; Postemergence, 125 g ai/ha", "value": 30}, {"measurement": "Plant response rating, Italian Ryegrass", "setting": "[5]; postemergence, 8 g ai/ha", "value": 10}, {"measurement": "Plant response rating, Pigweed, Palmer", "setting": "[6]; Postemergence, 16 g ai/ha", "value": 85}, {"measurement": "Plant response rating, Pigweed, Palmer", "setting": "[6]; Postemergence, 31 g ai/ha", "value": 90}, {"measurement": "Plant response rating, Pigweed, Palmer", "setting": "[6]; Postemergence, 125 g ai/ha", "value": 85}, {"measurement": "Plant response rating, Pigweed, Palmer", "setting": "[6]; postemergence, 62 g ai/ha", "value": "50 and 85"}, {"measurement": "Plant response rating, Pigweed, Palmer", "setting": "[6]; postemergence, 8 g ai/ha", "value": 60}, {"measurement": "Plant response rating, Wild Poinsettia", "setting": "[7]; Postemergence, 16 g ai/ha", "value": 70}, {"measurement": "Plant response rating, Wild Poinsettia", "setting": "[7]; Postemergence, 31 g ai/ha", "value": 75}, {"measurement": "Plant response rating, Wild Poinsettia", "setting": "[7]; Postemergence, 125 g ai/ha", "value": 95}, {"measurement": "Plant response rating, Wild Poinsettia", "setting": "[7]; postemergence, 62 g ai/ha", "value": "60 and 80"}, {"measurement": "Plant response rating, Wild Poinsettia", "setting": "[7]; postemergence, 8 g ai/ha", "value": 70}, {"measurement": "Plant response rating, Soybean", "setting": "[8]; Postemergence, 16 g ai/ha", "value": 30}, {"measurement": "Plant response rating, Soybean", "setting": "[8]; Postemergence, 31 g ai/ha", "value": 30}, {"measurement": "Plant response rating, Soybean", "setting": "[8]; Postemergence, 125 g ai/ha", "value": 30}, {"measurement": "Plant response rating, Soybean", "setting": "[8]; postemergence, 8 g ai/ha", "value": 20}, {"measurement": "Plant response rating, Hairy Beggarticks", "setting": "[9]; Postemergence, 16 g ai/ha", "value": 50}, {"measurement": "Plant response rating, Hairy Beggarticks", "setting": "[9]; Postemergence, 31 g ai/ha", "value": 60}, {"measurement": "Plant response rating, Hairy Beggarticks", "setting": "[9]; Postemergence, 125 g ai/ha", "value": 70}, {"measurement": "Plant response rating, Hairy Beggarticks", "setting": "[9]; postemergence, 62 g ai/ha", "value": "50 and 60"}, {"measurement": "Plant response rating, Hairy Beggarticks", "setting": "[9]; postemergence, 8 g ai/ha", "value": 30}, {"measurement": "Plant response rating, Crabgrass, Brazil", "setting": "[10]; Postemergence, 16 g ai/ha", "value": 30}, {"measurement": "Plant response rating, Crabgrass, Brazil", "setting": "[10]; Postemergence, 31 g ai/ha", "value": 30}, {"measurement": "Plant response rating, Crabgrass, Brazil", "setting": "[10]; Postemergence, 125 g ai/ha", "value": 50}, {"measurement": "Plant response rating, Crabgrass, Brazil", "setting": "[10]; postemergence, 62 g ai/ha", "value": "30 and 40"}, {"measurement": "Plant response rating, Crabgrass, Brazil", "setting": "[10]; postemergence, 8 g ai/ha", "value": 20}, {"measurement": "Plant response rating, Dayflower, VA", "setting": "[11]; Postemergence, 16 g ai/ha", "value": 50}, {"measurement": "Plant response rating, Dayflower, VA", "setting": "[11]; Postemergence, 31 g ai/ha", "value": 40}, {"measurement": "Plant response rating, Dayflower, VA", "setting": "[11]; Postemergence, 125 g ai/ha", "value": 60}, {"measurement": "Plant response rating, Dayflower, VA", "setting": "[11]; postemergence, 62 g ai/ha", "value": "30 and 60"}, {"measurement": "Plant response rating, Dayflower, VA", "setting": "[11]; postemergence, 8 g ai/ha", "value": 25}, {"measurement": "Plant response rating, Fall Panicum", "setting": "[12]; Postemergence, 16 g ai/ha", "value": 10}, {"measurement": "Plant response rating, Fall Panicum", "setting": "[12]; Postemergence, 31 g ai/ha", "value": 20}, {"measurement": "Plant response rating, Fall Panicum", "setting": "[12]; Postemergence, 125 g ai/ha", "value": 30}, {"measurement": "Plant response rating, Fall Panicum", "setting": "[12]; postemergence, 62 g ai/ha", "value": 20}, {"measurement": "Plant response rating, Fall Panicum", "setting": "[12]; postemergence, 8 g ai/ha", "value": 10}, {"measurement": "Plant response rating, Arrowleaf Sida", "setting": "[13]; Postemergence, 16 g ai/ha", "value": 75}, {"measurement": "Plant response rating, Arrowleaf Sida", "setting": "[13]; Postemergence, 31 g ai/ha", "value": 85}, {"measurement": "Plant response rating, Arrowleaf Sida", "setting": "[13]; Postemergence, 125 g ai/ha", "value": 85}, {"measurement": "Plant response rating, Arrowleaf Sida", "setting": "[13]; postemergence, 62 g ai/ha", "value": "40 and 75"}, {"measurement": "Plant response rating, Arrowleaf Sida", "setting": "[13]; postemergence, 8 g ai/ha", "value": 60}, {"measurement": "Plant response rating, Waterhemp_RES1", "setting": "[14]; Postemergence, 16 g ai/ha", "value": 90}, {"measurement": "Plant response rating, Waterhemp_RES1", "setting": "[14]; Postemergence, 31 g ai/ha", "value": 98}, {"measurement": "Plant response rating, Waterhemp_RES1", "setting": "[14]; Postemergence, 125 g ai/ha", "value": 100}, {"measurement": "Plant response rating, Waterhemp_RES1", "setting": "[14]; postemergence, 62 g ai/ha", "value": 90}, {"measurement": "Plant response rating, Waterhemp_RES1", "setting": "[14]; postemergence, 8 g ai/ha", "value": 85}]}, {"smiles": "CCc1cc(C(=O)NCC(F)(F)F)nn1Cc1ccnc(Br)c1", "note": "[Compound 224]", "values": [{"measurement": "Plant response rating, Cocklebur", "setting": "[15]; 62 g ai/ha", "value": 0}, {"measurement": "Plant response rating, Cocklebur", "setting": "[15]; 125 g ai/ha", "value": 0}]}]}
